Results from patent US20230173018A1, “CASPOFUNGIN DERIVATIVES AND ASSAYS FOR EVALUATING ANTIFUNGAL TREATMENT EFFICACY” (priority 2020, published 2023).
≈ marks a conversion by molar mass, not a printed value.

Key:
Assay type in all cases: cell-based
[1] = test system: C. albicans DPL1016 (DP-A15-10); assay: microbe, parasite or virus in culture; conditions: strain no. 3, DPL1016 (DP-A15-10), parental SC5314, FKS1 mutant HS1-S645P
Text: (§1) The antifungal activities of compounds 1a, 1 and 2 (collectively: caspofungin derivatives) were compared to that of caspofungin and CSF-BOD using a panel of 49 C. albicans and C. glabrata strains (Tables 1 and 2). The panel included ATCC strains and clinical isolates as well a collection of caspofungin-responsive strains and their corresponding isogenic caspofungin-resistant derivatives, constructed by introducing point mutations within and near the defined hotspots in the FKS1 and/or FKS2 genes of the GS complex. Minimal inhibitory concentration (MIC) values for all strains were determined using the broth double dilution method and are summarized in FIG. 2 and Table 2. […] The clinical breakpoints (threshold) for caspofungin-resistance in C. albicans and C. glabrata are 1 μg/mL and 0.5 μg/mL, respectively.

C. albicans SN95 = assay: microbe, parasite or virus in culture; conditions: strain no. 8, SN95, parental RM1000
Text: as §1

[2] = test system: C. albicans T-2076 (DP-194); assay: microbe, parasite or virus in culture; conditions: strain no. 13, T-2076 (DP-194), clinical isolate, FKS1 HS1-S645F, HS2-R1361R/H mutation
Text: as §1

[3] = test system: C. albicans T-2077 (DP-205); assay: microbe, parasite or virus in culture; conditions: strain no. 15, T-2077 (DP-205), clinical isolate, FKS1 HS1-S645P mutation
Text: as §1

C. glabrata DPL1086 = assay: microbe, parasite or virus in culture; conditions: strain no. 17, DPL1086, parental ATCC 90030, FKS1 mutant HS1-S629P
Text: as §1

C. glabrata TGL00056 = assay: microbe, parasite or virus in culture; conditions: strain no. 22, TGL00056, parental CST34, FKS mutant
Text: as §1

C. glabrata TGL00091 = assay: microbe, parasite or virus in culture; conditions: strain no. 35, TGL00091, FKS mutant
Text: as §1

C. glabrata TGL00107 = assay: microbe, parasite or virus in culture; conditions: strain no. 23, TGL00107, parental CST34, FKS mutant
Text: as §1

C. glabrata TGL00253 = assay: microbe, parasite or virus in culture; conditions: strain no. 20, TGL00253, parental CST109, FKS2 mutant
Text: as §1

C. glabrata TGL00263 = assay: microbe, parasite or virus in culture; conditions: strain no. 28, TGL00263, parental CST78, FKS mutant
Text: as §1

C. glabrata TGL00264 = assay: microbe, parasite or virus in culture; conditions: strain no. 29, TGL00264, parental CST78, FKS mutant
Text: as §1

C. glabrata TGL00275 = assay: microbe, parasite or virus in culture; conditions: strain no. 32, TGL00275, FKS mutant
Text: as §1

C. glabrata TGL00277 = assay: microbe, parasite or virus in culture; conditions: strain no. 33, TGL00277, parental EF1620, FKS mutant
Text: as §1

C. glabrata TGL00291 = assay: microbe, parasite or virus in culture; conditions: strain no. 36, TGL00291, parental BG2, FKS mutant
Text: as §1

C. albicans ATCC 10231 = assay: MIC, broth double dilution; conditions: strain no. 11, C. albicans ATCC 10231
Text: as §1

C. albicans ATCC 24433 = assay: MIC, broth double dilution; conditions: strain no. 6, C. albicans ATCC 24433
Text: as §1

C. albicans BWP17 = assay: MIC, broth double dilution; conditions: strain no. 9, BWP17, parental RM1000
Text: as §1

C. albicans SC5314 = assay: MIC, broth double dilution; conditions: strain no. 1, C. albicans SC5314, WT
Text: as §1

C. albicans SN152 = assay: MIC, broth double dilution; conditions: strain no. 5, C. albicans SN152
Text: as §1

C. glabrata ATCC 15126 = assay: MIC, broth double dilution; conditions: strain no. 41, C. glabrata ATCC 15126
Text: as §1

C. glabrata ATCC 2001 = assay: MIC, broth double dilution; conditions: strain no. 39, C. glabrata ATCC 2001
Text: as §1

C. glabrata ATCC 66032 = assay: MIC, broth double dilution; conditions: strain no. 40, C. glabrata ATCC 66032
Text: as §1

C. glabrata ATCC 90030 = assay: MIC, broth double dilution; conditions: strain no. 16, C. glabrata ATCC 90030, WT
Text: as §1

C. glabrata BG2 = assay: MIC, broth double dilution; conditions: strain no. 34, C. glabrata BG2
Text: as §1

C. glabrata CST109 = assay: MIC, broth double dilution; conditions: strain no. 18, C. glabrata CST109 (parental)
Text: as §1

C. glabrata CST34 = assay: MIC, broth double dilution; conditions: strain no. 21, C. glabrata CST34 (parental)
Text: as §1

C. glabrata EF1620 = assay: MIC, broth double dilution; conditions: strain no. 31, C. glabrata EF1620
Text: as §1

[4] = test system: C. glabrata T-190 (11-304); assay: MIC, broth double dilution; conditions: strain no. 42, T-190 (11-304), clinical isolate
Text: as §1

[5] = test system: C. glabrata T-191 (11-331); assay: MIC, broth double dilution; conditions: strain no. 43, T-191 (11-331), clinical isolate
Text: as §1

C. glabrata T-192 (1775) = assay: MIC, broth double dilution; conditions: strain no. 44, T-192 (1775), clinical isolate
Text: as §1

[6] = test system: C. glabrata T-193 (11-282); assay: MIC, broth double dilution; conditions: strain no. 45, T-193 (11-282), clinical isolate
Text: as §1

[7] = test system: C. glabrata T-982 (11-181); assay: MIC, broth double dilution; conditions: strain no. 46, T-982 (11-181), clinical isolate
Text: as §1

[8] = test system: C. glabrata T-983 (11-079); assay: MIC, broth double dilution; conditions: strain no. 47, T-983 (11-079), clinical isolate
Text: as §1

[9] = test system: C. glabrata T-984 (11-078); assay: MIC, broth double dilution; conditions: strain no. 48, T-984 (11-078), clinical isolate
Text: as §1

Work on `CC[C@H](C)C[C@H](C)CCCCCCCCC(=O)N[C@H]1C[C@@H](O)[C@@H](NCCNC(=O)CCc2ccc3n2[B-](F)(F)[N+]2=C(C)C=C(C)C2=C3)NC(=O)[C@@H]2[C@@H](O)CCN2C(=O)[C@H]([C@H](O)CCN)NC(=O)[C@H]([C@H](O)[C@@H](O)c2ccc(O)cc2)NC(=O)[C@@H]2C[C@@H](O)CN2C(=O)[C@H]([C@@H](C)O)NC1=O` [CSF-BOD] yielded an MIC [1] of over 64 µg/mL, an MIC (C. albicans SN95) of 2 µg/mL (≈ 1.46 µM) and an MIC [2] of 32 µg/mL (≈ 23.4 µM). The MIC [3] was over 64 µg/mL, the MIC (C. glabrata DPL1086) was 16 µg/mL (≈ 11.7 µM) and the MIC (C. glabrata TGL00056) was over 64 µg/mL. It also gave an MIC (C. glabrata TGL00091) of over 64 µg/mL, an MIC (C. glabrata TGL00107) of over 64 µg/mL and an MIC (C. glabrata TGL00253) of over 64 µg/mL. For the same molecule, the MIC (C. glabrata TGL00263) was over 64 µg/mL, the MIC (C. glabrata TGL00264) was over 64 µg/mL and the MIC (C. glabrata TGL00275) was over 64 µg/mL. It also gave an MIC (C. glabrata TGL00277) of over 64 µg/mL, an MIC (C. glabrata TGL00291) of over 64 µg/mL and an MIC (C. albicans ATCC 10231) of 2 µg/mL (≈ 1.46 µM). It also gave an MIC (C. albicans ATCC 24433) of 2 µg/mL (≈ 1.46 µM), an MIC (C. albicans BWP17) of 1 µg/mL (≈ 0.731 µM) and an MIC (C. albicans SC5314) of 1 µg/mL (≈ 0.731 µM). The MIC (C. albicans SN152) was 1 µg/mL (≈ 0.731 µM), the MIC (C. glabrata ATCC 15126) was 2 µg/mL (≈ 1.46 µM) and the MIC (C. glabrata ATCC 2001) was 1 µg/mL (≈ 0.731 µM). It also gave an MIC (C. glabrata ATCC 66032) of 2 µg/mL (≈ 1.46 µM), an MIC (C. glabrata ATCC 90030) of 2 µg/mL (≈ 1.46 µM) and an MIC (C. glabrata BG2) of 2 µg/mL (≈ 1.46 µM). For the same molecule, the MIC (C. glabrata CST109) was 2 µg/mL (≈ 1.46 µM), the MIC (C. glabrata CST34) was 1 µg/mL (≈ 0.731 µM) and the MIC (C. glabrata EF1620) was 1 µg/mL (≈ 0.731 µM). The MIC [4] was 1 µg/mL (≈ 0.731 µM), the MIC [5] was 1 µg/mL (≈ 0.731 µM) and the MIC (C. glabrata T-192 (1775)) was 2 µg/mL (≈ 1.46 µM). For the same molecule, the MIC [6] was 1 µg/mL (≈ 0.731 µM), the MIC [7] was 1 µg/mL (≈ 0.731 µM) and the MIC [8] was 2 µg/mL (≈ 1.46 µM). The MIC [9] was 2 µg/mL (≈ 1.46 µM).
